Literature values as cited in publication PMC4007625, “A phase I study of AST1306, a novel irreversible EGFR and HER2 kinase inhibitor, in patients with advanced solid tumors” (Journal of Hematology & Oncology, 2014).

Tested on: advanced/metastatic gastric cancer
Design: method as in PMID 21415234
Conditions: single agent, advanced/metastatic gastric cancer patients; cited from earlier work

For `CS(=O)(=O)CCNCc1ccc(-c2ccc3ncnc(Nc4ccc(OCc5cccc(F)c5)c(Cl)c4)c3c2)o1` [lapatinib], the response rate is given as 9%.
